The results in this text go back to the SangsterLogP compilation.

The term logP denotes a log measure of how a compound divides between an organic and an aqueous phase. Higher therefore signals a more lipophilic compound.

This data set can be described thus: method code SF-HPLC, from DOI: 10.1021/jf960844v.
In turn, `C=C(Cl)CON=C(C)c1cccc(Oc2nc(OC)cc(OC)n2)c1C(=O)OC` displayed a logP of 3.63.

Regarding `COC(=O)c1c(Oc2nc(OC)cc(OC)n2)cccc1C(C)=NOCC(F)(F)F`, the logP was 3.39.

Turning to `COC(=O)c1c(Oc2nc(OC)cc(OC)n2)cccc1C(C)=NOCC=C(Cl)Cl`, the logP worked out at 4.23.

Compound `CO/N=C(\C)c1cccc(Oc2nc(OC)cc(OC)n2)c1C(=O)OC` yielded a lipophilicity (logP) of 2.57.

The compound `COC(=O)c1c(Oc2nc(OC)cc(OC)n2)cccc1C(C)=NO` gave a log partition coefficient (logP) of 1.93.

Take `CCO/N=C(\C)c1cccc(Oc2nc(OC)cc(OC)n2)c1C(=O)OC`: the logP turned out to be 2.96.

Compound `COC(=O)c1c(Oc2nc(OC)cc(OC)n2)cccc1C(C)=NOC(C)=O` showed a logP of 1.68.

Compound `COC(=O)c1c(Oc2nc(OC)cc(OC)n2)cccc1C(C)=NOCc1ccccc1` yielded a logP of 4.01.

For `COC(=O)c1c(Oc2nc(OC)cc(OC)n2)cccc1C(C)=NOCCF`, the logP stood at 2.31.

For `COC(=O)c1c(Oc2nc(OC)cc(OC)n2)cccc1/C(C)=N/OCCCl`, the logP was determined as 3.23.

In turn, `CCCCON=C(C)c1cccc(Oc2nc(OC)cc(OC)n2)c1C(=O)OC` gave a logP of 4.11.

Compound `CCCO/N=C(\C)c1cccc(Oc2nc(OC)cc(OC)n2)c1C(=O)OC` showed a logP of 3.59.

In the case of `C=CCO/N=C(\C)c1cccc(Oc2nc(OC)cc(OC)n2)c1C(=O)OC`, the logP was determined as 3.13.

Compound `C=C(Br)CON=C(C)c1cccc(Oc2nc(OC)cc(OC)n2)c1C(=O)OC` registered a logP of 3.73.
